Experiment [1] addresses T1, HDAC3 (Homo sapiens, UniProt O15379).
T1 construct: endogenous in cells; host or cells: HCT116
Briefly: HDAC3 degradation in HCT116 cells, quantitative western blot. It counts as cell-based. To be noted: HCT-116, 24 h; HCT116, screened at 0.1, 1 and 10 μM; maximum degradation irrespective of concentration; read-out: HDAC 3 degrader (% Degradation). Here is the method: (§1) The compounds were screened at 0.1 μM, 1 μM and 10 μM in a HCT116 cell line. The maximum degradation observed irrespective of the concertation was recorded. The screening of the new compounds was done in 6-well plates, 5 mL media, with 400,000 cells per well to increase throughput.
(§2) HCT116 or mES cells were treated 24 hours after seeding. 24 hours post treatment, cells were harvested, lysed in lysis buffer (50 mM Tris-HCl, 150 mM NaCl, 0.5% NP-40, 0.5% Triton X-100) with protease inhibitor (Sigma, P8340), then incubated on ice for 30 minutes, before being centrifuged (18,000 ref, 15 minutes, 4° C.). The supernatant was collected, and protein concentrations quantified via Bradford Assay using Protein Assay Dye Reagent Concentrate (BIO-RAD). For histone extraction, an equal volume of 0.4 N H2SO4 was added to the pellets and the extracts placed at 4° C. overnight. Following overnight incubation, the tubes were centrifuged (18,000 ref, 15 minutes, 4° C.) and then the supernatant (histone extract) collected.
(§3) PageRuler™ Plus Prestained Ladder was used for size standards. After gel electrophoresis at 140V for 75-90 minutes the separated proteins were transferred onto nitrocellulose membrane at 30V for 60 minutes. The membranes were probed with primary antibodies (listed below) for 60-90 minutes. Blots were developed with complimentary IRDye conjugated secondary antibodies and the bands visualised using the Odyssey Infrared Imaging System. Image processing and band intensity quantification was performed using Image Studio Lite.

In experiment [2] the target is NuRD (Homo sapiens, UniProt Q13547). Kind of experiment: HDAC inhibition assay, NuRD complex (Table 1). It counts as biochemical.
NuRD, sequence (Q13547 whole entry): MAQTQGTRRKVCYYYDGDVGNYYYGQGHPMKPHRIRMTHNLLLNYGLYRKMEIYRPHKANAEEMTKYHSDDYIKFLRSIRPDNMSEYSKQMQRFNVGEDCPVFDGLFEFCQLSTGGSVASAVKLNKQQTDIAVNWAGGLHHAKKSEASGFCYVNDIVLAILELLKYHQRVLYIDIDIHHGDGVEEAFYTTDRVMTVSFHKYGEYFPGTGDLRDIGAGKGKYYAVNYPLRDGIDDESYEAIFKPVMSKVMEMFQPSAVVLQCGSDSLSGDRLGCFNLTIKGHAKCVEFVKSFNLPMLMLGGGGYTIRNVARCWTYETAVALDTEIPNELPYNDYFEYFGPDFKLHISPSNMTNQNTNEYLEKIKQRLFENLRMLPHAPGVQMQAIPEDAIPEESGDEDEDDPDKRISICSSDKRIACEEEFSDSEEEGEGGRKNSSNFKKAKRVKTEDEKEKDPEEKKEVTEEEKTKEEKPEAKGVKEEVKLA
NuRD, sequence (Q13330 162-546 partner limits assumed): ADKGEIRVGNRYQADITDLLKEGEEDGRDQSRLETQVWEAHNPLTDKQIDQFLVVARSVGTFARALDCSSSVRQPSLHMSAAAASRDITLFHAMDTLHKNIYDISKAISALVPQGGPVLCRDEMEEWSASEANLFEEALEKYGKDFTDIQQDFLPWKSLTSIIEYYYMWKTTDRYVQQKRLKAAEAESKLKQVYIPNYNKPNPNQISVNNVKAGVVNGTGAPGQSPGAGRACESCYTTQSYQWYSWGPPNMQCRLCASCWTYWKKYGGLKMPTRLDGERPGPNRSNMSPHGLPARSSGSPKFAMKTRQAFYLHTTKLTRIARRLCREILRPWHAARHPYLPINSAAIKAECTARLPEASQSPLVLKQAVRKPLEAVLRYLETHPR
NuRD, sequence (Q09028 whole entry partner): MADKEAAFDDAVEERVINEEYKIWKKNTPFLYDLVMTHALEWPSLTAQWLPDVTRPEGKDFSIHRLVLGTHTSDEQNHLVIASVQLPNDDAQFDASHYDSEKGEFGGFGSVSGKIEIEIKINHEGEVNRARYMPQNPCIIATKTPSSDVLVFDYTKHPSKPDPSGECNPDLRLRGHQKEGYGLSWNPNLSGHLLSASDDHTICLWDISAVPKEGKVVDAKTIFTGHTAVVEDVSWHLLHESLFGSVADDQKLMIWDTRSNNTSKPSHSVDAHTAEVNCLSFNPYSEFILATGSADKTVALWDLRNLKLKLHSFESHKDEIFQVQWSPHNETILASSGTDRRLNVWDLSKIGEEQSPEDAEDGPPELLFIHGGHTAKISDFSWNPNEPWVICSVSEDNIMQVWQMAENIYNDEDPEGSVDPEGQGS
The target in experiment [3] is T2, HDAC2 (Homo sapiens, UniProt Q92769).
T2 construct: endogenous in cells; host or cells: HCT116
T2 sequence (Q92769 whole entry): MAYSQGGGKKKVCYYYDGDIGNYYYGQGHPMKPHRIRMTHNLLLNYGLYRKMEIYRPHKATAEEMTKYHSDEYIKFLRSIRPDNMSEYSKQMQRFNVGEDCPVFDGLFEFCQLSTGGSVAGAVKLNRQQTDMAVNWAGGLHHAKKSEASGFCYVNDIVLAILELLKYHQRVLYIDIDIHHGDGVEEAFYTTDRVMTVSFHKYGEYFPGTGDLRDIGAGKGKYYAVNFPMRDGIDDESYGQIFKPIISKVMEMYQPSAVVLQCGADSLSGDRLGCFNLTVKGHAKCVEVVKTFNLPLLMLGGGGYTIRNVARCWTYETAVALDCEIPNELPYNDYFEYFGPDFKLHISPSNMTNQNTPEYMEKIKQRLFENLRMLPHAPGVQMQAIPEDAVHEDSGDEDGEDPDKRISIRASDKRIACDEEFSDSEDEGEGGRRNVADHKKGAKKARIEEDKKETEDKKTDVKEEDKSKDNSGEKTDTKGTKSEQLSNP
Briefly: HDAC2 degradation in HCT116 cells, quantitative western blot. It counts as cell-based. To be noted: for Dmax: HCT-116, 24 h, read-out: HDAC 2 Degrader (% Degradation); for Dmax / HDAC 2 Degrader (% Degradation): HCT116, screened at 0.1, 1 and 10 μM, maximum degradation irrespective of concentration. Here is the method:
as §1, §2, §3

Experiment [4] addresses CoREST (Homo sapiens, UniProt Q13547). Briefly: HDAC inhibition assay, CoREST complex (Table 1, run under different conditions). It counts as biochemical. To be noted: Table 1 conditions (differ from FIG. 3). As for the experimental part:
Inhibition tests against LSD1-HDAC-CoREST complex were performed using a two-enzyme fluorescence-based HDAC assay. The inhibitor/PROTACs were dissolved at 50 mM in DMSO, then 1:2 serial dilutions performed using HDAC assay buffer (50 mM Tris pH 7.5, 150 mM NaCl) to afford range of concentrations.
The assays were performed in black 96-well plates with a reaction volume of 50 μL per well. All determinations were performed in triplicate. […] After an incubation of 20 minutes at 37° C. and 150 rpm, deacetylation was stopped by the addition of 50 μL of a developing solution containing trypsin (50 mM Tris pH 7.5, 100 mM NaCl, 10 mg/mL trypsin). […] HDAC Activity was calculated by subtracting the average blank fluorescence from the well fluorescence. Graphpad Prism software was utilised to determine IC50 values.

Experiment [5] deals with T3, HDAC1 (Homo sapiens, UniProt Q13547).
T3 construct: endogenous in cells; host or cells: HCT116
T3 sequence (Q13547 whole entry): as the sequence (Q13547 whole entry) above
Briefly: HDAC1 degradation in HCT116 cells, quantitative western blot. It counts as cell-based. As to conditions: for Dmax: HCT-116, 24 h, HCT116, screened at 0.1, 1 and 10 μM, maximum degradation irrespective of concentration, read-out: HDAC1 Degrader (% Degradation). As for the experimental part:
as §1, §2, §3

Experiment [6] deals with MiDAC (Homo sapiens, UniProt Q13547). Kind of experiment: HDAC inhibition assay, MiDAC complex (Table 1). It counts as biochemical.
MiDAC, sequence (Q13547 whole entry): as above
MiDAC, sequence (Q6PJG2 628-887 partner limits assumed): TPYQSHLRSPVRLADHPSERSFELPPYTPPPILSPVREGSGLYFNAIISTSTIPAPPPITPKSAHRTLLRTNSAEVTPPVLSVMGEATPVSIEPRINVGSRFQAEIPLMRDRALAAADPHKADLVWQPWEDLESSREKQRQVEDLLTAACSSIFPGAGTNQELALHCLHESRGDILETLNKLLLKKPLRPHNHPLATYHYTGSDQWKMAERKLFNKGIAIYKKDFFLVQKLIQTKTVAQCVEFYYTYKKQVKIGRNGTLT
MiDAC, sequence (Q9H147 whole entry partner): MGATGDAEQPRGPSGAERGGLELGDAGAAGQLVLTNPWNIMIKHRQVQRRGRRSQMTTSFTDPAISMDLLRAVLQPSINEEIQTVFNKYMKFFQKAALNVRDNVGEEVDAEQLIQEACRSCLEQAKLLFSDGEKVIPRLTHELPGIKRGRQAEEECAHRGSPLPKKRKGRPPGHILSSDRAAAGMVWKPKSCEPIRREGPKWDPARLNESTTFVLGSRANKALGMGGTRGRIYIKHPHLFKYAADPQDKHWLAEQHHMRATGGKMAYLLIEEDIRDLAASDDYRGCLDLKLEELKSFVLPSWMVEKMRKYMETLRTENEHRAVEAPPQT
Where [7] appears, read: HCT116, side by side with PROTAC 4, FIG. 4C.

The record followed here is US20230120211A1, “HDAC Degrader” (University of Leicester, priority 2020, published 2023).

CoREST, sequence (Q13547 whole entry, other chains not shown): as the sequence (Q13547 whole entry) above
CoREST, sequence (Q9UKL0 86-485 partner limits assumed, other chains not shown): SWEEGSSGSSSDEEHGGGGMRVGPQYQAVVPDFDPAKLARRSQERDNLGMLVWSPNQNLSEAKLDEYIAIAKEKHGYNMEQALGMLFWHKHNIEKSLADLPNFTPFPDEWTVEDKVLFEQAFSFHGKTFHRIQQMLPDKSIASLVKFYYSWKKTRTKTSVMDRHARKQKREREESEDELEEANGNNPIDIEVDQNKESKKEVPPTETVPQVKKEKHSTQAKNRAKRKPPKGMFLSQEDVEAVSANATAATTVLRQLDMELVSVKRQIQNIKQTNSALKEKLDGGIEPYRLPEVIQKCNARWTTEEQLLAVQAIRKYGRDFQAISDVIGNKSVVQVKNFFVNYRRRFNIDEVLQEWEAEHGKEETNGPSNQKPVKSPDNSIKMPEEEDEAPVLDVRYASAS
T1 sequence (O15379 whole entry): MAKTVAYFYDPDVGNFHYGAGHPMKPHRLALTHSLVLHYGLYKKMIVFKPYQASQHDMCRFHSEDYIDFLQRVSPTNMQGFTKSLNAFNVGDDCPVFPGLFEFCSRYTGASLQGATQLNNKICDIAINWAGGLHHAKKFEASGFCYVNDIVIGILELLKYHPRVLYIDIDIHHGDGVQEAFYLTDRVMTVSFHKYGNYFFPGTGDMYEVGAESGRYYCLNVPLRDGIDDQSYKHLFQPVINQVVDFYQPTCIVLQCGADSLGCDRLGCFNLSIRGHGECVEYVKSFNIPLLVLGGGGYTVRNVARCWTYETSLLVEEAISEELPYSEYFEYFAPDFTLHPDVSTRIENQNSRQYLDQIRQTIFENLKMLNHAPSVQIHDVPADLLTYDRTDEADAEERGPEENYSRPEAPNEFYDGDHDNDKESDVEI

As for `Cc1ncsc1-c1ccc(CNC(=O)[C@@H]2C[C@@H](O)CN2C(=O)[C@@H](NC(=O)COCCCCCCCCCOCC(=O)Nc2ccc(C(=O)Nc3ccccc3N)cc2)C(C)(C)C)cc1` [PROTAC16, (2S,4R)-1-((S)-2-(2-((9-(2-((4-((2-aminophenyl)carbamoyl)phenyl)amino)-2-oxoethoxy)nonyl)oxy)acetamido)-3,3-dimethylbutanoyl)-4-hydroxy-N-(4-(4-methylthiazol-5-yl)benzyl)pyrrolidine-2-carboxamide], the Dmax in experiment [1] was found to be 67%; in experiment [3], 58%; in experiment [5], 67%. Moreover, the results for the IC50 in experiment [2] and in experiment [4] were 11.8 µM and 4.13 µM, respectively.
On to `Cc1ncsc1-c1ccc(CNC(=O)[C@@H]2C[C@@H](O)CN2C(=O)[C@@H](NC(=O)CCCCCCCn2cc(COC(=O)NCc3ccc(C(=O)Nc4ccccc4N)cc3)nn2)C(C)(C)C)cc1` [PROTAC29, (1-(8-(((S)-1-((2S,4R)-4-hydroxy-2-((4-(4-methylthiazol-5-yl)benzyl)carbamoyl)pyrrolidin-1-yl)-3,3-dimethyl-1-oxobutan-2-yl)amino)-8-oxooctyl)-1H-1,2,3-triazol-4-yl)methyl(4-((2-aminophenyl)carbamoyl)benzyl)carbamate], for which the values for the Dmax in experiment [1], in experiment [3] and in experiment [5] were 64%, 23% and 39%, respectively.
On to `CN[C@@H](C)C(=O)N[C@H](C(=O)N1CCC[C@H]1c1nc(C(=O)c2cccc(OCCCCCCCCCCCC(=O)Nc3ccc(C(=O)Nc4ccccc4N)cc3)c2)cs1)C1CCCCC1` [PROTAC37, N-(2-aminophenyl)-4-(12-(3-(2-((S)-1-((S)-2-cyclohexyl-2-((S)-2-(methylamino)propanamido)acetyl)pyrrolidin-2-yl)thiazole-4-carbonyl)phenoxy)dodecanamido)benzamide], for which the Dmax stood at 37% in experiment [1], 16% in experiment [3] and 38% in experiment [5].
In the case of `Cc1ncsc1-c1ccc(CNC(=O)[C@@H]2C[C@@H](O)CN2C(=O)[C@@H](NC(=O)COCCOCCOCC(=O)Nc2ccc(C(=O)Nc3cc(-c4cccs4)ccc3N)cc2)C(C)(C)C)cc1` [PROTAC22, (2S,4R)-1-((S)-14-((4-((2-amino-5-(thiophen-2-yl)phenyl)carbamoyl)phenyl)amino)-2-(tert-butyl)-4,14-dioxo-6,9,12-trioxa-3-azatetradecanoyl)-4-hydroxy-N-(4-(4-methylthiazol-5-yl)benzyl)pyrrolidine-2-carboxamide], the Dmax in experiment [1] and in experiment [5] was 32% each time. For the same compound, the “HDAC 2 Degrader (% Degradation)” value in experiment [3] was “No”.
In the case of `Cc1ncsc1-c1ccc(CNC(=O)[C@@H]2C[C@@H](O)CN2C(=O)[C@@H](NC(=O)CCCCCCCC(=O)Nc2ccc(C(=O)Nc3ccccc3N)cc2)C(C)(C)C)cc1` [PROTAC6, N1-(4-((2-aminophenyl)carbamoyl)phenyl)-N9-((S)-1-((2S,4R)-4-hydroxy-2-((4-(4-methylthiazol-5-yl)benzyl)carbamoyl)pyrrolidin-1-yl)-3,3-dimethyl-1-oxobutan-2-yl)nonanediamide], the values for the IC50 in experiment [2], in experiment [6] and in experiment [4] were 0.338 µM, 1.69 µM and 0.244 µM, respectively. In addition, the “HDAC 2 Degrader (% Degradation)” value in experiment [3] is reported as “partial”. The Dmax in experiment [5] was determined as 60%.
Take `Cc1ncsc1-c1ccc(CNC(=O)[C@@H]2C[C@@H](O)CN2C(=O)[C@@H](NC(=O)C2(F)CC2)C(C)(C)C)c(OCCCCCCCCCCCC(=O)Nc2ccc(C(=O)Nc3ccccc3N)cc2)c1` [PROTAC36, (2S,4R)-N-(2-((12-((4-((2-aminophenyl)carbamoyl)phenyl)amino)-12-oxododecyl)oxy)-4-(4-methylthiazol-5-yl)benzyl)-1-((S)-2-(1-fluorocyclopropane-1-carboxamido)-3,3-dimethylbutanoyl)-4-hydroxypyrrolidine-2-carboxamide]: the Dmax in experiment [1] was 69%; in experiment [3], 28%; in experiment [5], 51%.
As to `CC(=O)N[C@H](C(=O)N1C[C@H](O)C[C@H]1C(=O)NCc1ccc(-c2scnc2C)cc1OCCCCCCCCCCCC(=O)Nc1ccc(C(=O)Nc2ccccc2N)cc1)C(C)(C)C` [PROTAC35, (2S,4R)-1-((S)-2-acetamido-3,3-dimethylbutanoyl)-N-(2-((12-((4-((2-aminophenyl)carbamoyl)phenyl)amino)-12-oxododecyl)oxy)-4-(4-methylthiazol-5-yl)benzyl)-4-hydroxypyrrolidine-2-carboxamide], the Dmax in experiment [1] was determined as 38%; in experiment [3], 49%; in experiment [5] it was 61%.
The matching figures for `Cc1ncsc1-c1ccc(CNC(=O)[C@@H]2C[C@@H](O)CN2C(=O)[C@@H](NC(=O)CCCCCCCCCCCCC(=O)Nc2ccc(C(=O)Nc3ccccc3N)cc2)C(C)(C)C)cc1` [PROTAC34, N1-(4-((2-aminophenyl)carbamoyl)phenyl)-N14-((S)-1-((2S,4R)-4-hydroxy-2-((4-(4-methylthiazol-5-yl)benzyl)carbamoyl)pyrrolidin-1-yl)-3,3-dimethyl-1-oxobutan-2-yl)tetradecanediamide]: 30%, 44% and 47%.
Regarding `Cc1ncsc1-c1ccc(CNC(=O)[C@@H]2C[C@@H](O)CN2C(=O)[C@@H](NC(=O)COCCCCCCOCC(=O)Nc2ccc(C(=O)Nc3ccccc3N)cc2)C(C)(C)C)cc1` [PROTAC12, (2S,4R)-1-((S)-2-(2-((6-(2-((4-((2-aminophenyl)carbamoyl)phenyl)amino)-2-oxoethoxy)hexyl)oxy)acetamido)-3,3-dimethylbutanoyl)-4-hydroxy-N-(4-(4-methylthiazol-5-yl)benzyl)pyrrolidine-2-carboxamide], the Dmax in experiment [1] is 32%; in experiment [3], 46%; in experiment [5], 42%. Moreover, the figures for the concentration for half-maximal inhibition (IC50) in experiment [2], in experiment [6] and in experiment [4] were 8.13 µM, 5.15 µM and 7.17 µM, respectively.
With `CN[C@@H](C)C(=O)N[C@H](C(=O)N1C[C@@H](NC(=O)CCCCCCCCCCC(=O)Nc2ccc(C(=O)Nc3ccccc3N)cc2)C[C@H]1C(=O)N[C@@H]1CCCc2ccccc21)C1CCCCC1` [PROTAC26, N^1-(4-((2-aminophenyl)carbamoyl)phenyl)-N^12-((3S,5S)-1-((S)-2-cyclohexyl-2-((S)-2-(methylamino)propanamido)acetyl)-5-(((R)-1,2,3,4-tetrahydronaphthalen-1-yl)carbamoyl)pyrrolidin-3-yl) dodecanediamide], the Dmax in experiment [1] amounted to 88%; in experiment [3], 58%; in experiment [5], 88%.
Take `Cc1ncsc1-c1ccc(CNC(=O)[C@@H]2C[C@H](O)CN2C(=O)[C@@H](NC(=O)CCCCCCCCCCC(=O)Nc2ccc(C(=O)Nc3ccccc3N)cc2)C(C)(C)C)cc1` [NC-PROTAC4, N1-(4-((2-aminophenyl)carbamoyl)phenyl)-N12-((S)-1-((2S,4S)-4-hydroxy-2-((4-(4-methylthiazol-5-yl)benzyl)carbamoyl)pyrrolidin-1-yl)-3,3-dimethyl-1-oxobutan-2-yl)dodecanediamide]: the HDAC2 degradation entry in experiment [3] (setting [7]) is on record as “No degradation”. Moreover, in experiment [5] (setting [7]), the HDAC1 degradation result is reported as “No degradation”.
